Data: patent US7563771B2, “Synthetic single domain polypeptides mimicking apolipoprotein E” (UAB Research Foundation, priority 2002, dated 2009)
Peptide text beside a SMILES is read from it.

How the values were obtained:
[1] = Solubility of peptide and peptide:DMPC complexes
[2] = test system: plasma cholesterol; experiment: Plasma cholesterol in dyslipidemic mouse models; type: in vivo; settings: several dyslipidemic mouse models, dose-dependent manner
Procedure: These studies were carried out to assess the bioactivity of the single domain R-18L peptides in vivo and compare its activity with the known activity of a dual domain Apo-E derived peptide. In this case, the bioactivity refers to the activity of lowering serum cholesterol in a subject (e.g., in a transgenic mouse). In this example, the 18L peptide analogs were administered to dyslipidemic mice.

[3] = Toxicity of intravenously administered peptide to mice; type: in vivo; settings: 100 μg/mouse; for toxicity to mice, in words: intravenously
[4] = test system: HepG2 cells; experiment: Uptake of 125I-LDL and 125I-VLDL by HepG2 cells in presence of peptide; type: cell-based
Procedure: These experiments were performed to test the bioactivity of the R-18L peptide in cell culture. […] Specifically, ^125I-LDL and ^125I-VLDL and the R-18L peptide were incubated with HepG2 cells in vitro for 2 hours to determine the cellular uptake of the iodinated compounds. […] H/H represent uptake of the lipoproteins in cells treated with heparinase/heparitinase. […] In case of VLDL, the peptide-mediated uptake appeared to be predominantly via an HSPG pathway. […] Examples of atherogenic lipoproteins are VLDL and LDL.
This experiment was carried out to follow the events subsequent to the binding of atherogenic lipoproteins to cultured cells. HepG2 cells (obtained from American Type Culture Collection (ATCC), Manassas, Va.) are used for determining peptide-mediated enhanced uptake of LDL or VLDL. Cells are grown in DMEM in six-well plates and used at 75% to 90% confluence. The seeding density of the cells that is used is 1.5-3.0×10^5 cells/ml. Cells are treated with DMEM containing lipoprotein-deficient serum (LPDS) 24 h prior to use to upregulate […] with the indicated concentration (0 to 50 μg of ^125I-LDL) at 4° C. for 2 h in presence or absence of peptides. Nonspecific binding is assessed in the presence of 50-fold excess of unlabelled LDL with or without peptides. After washing with ice-cold PBS, (containing 2 mg/ml BSA) to remove excess labeled lipoproteins, cells are incubated with excess dextran sulfate (4 mg/ml Pharmacia, Mr of 500,000) or heparin (Sigma Chemical Co., St. Louis, Mo., 10 mg/ml) for 1 h to release specifically bound ^125I-LDL. The counts in the dextran sulfate wash reflect the amount of LDL bound to cells. Cells are then washed with PBS and then dissolved in 0.1 N NaOH and a 0.5 ml aliquot of the cells suspension is counted. The counts reflect the amount of LDL internalized. The amount of protein is estimated using the Lowry method. Degradation of LDL is assessed by precipitating ^125I-LDL using 17% […] acid and incubating at 4° C. for 30 min. The precipitate is removed by centrifugation. The supernatant is treated with 10 μl of 40% KI and 40 μl of 10% hydrogen peroxide. The free ^125I is extracted with 2 ml chloroform. The upper aqueous layer is then counted for radioactivity. These counts represent the amount of monoiodi-tyrosine produced by the degradation of apo B in lipoproteins. Cell surface HSPG is removed by treating cells with heparinase and heparitinase (Sigma Chemical Co., St. Louis, Mo.) at a concentration of 3 u/ml of medium for 2 h at 37° C. In all cell experiments an average value of triplicate experiments are considered. Counts are detected inside the cultured cells and it is shown that LDL and VLDL are bound, internalized and degraded in the cultured cells in the presence of the peptide of the invention.

[5] = test system: LDL from LDL-R null mice; experiment: Association of 125I-labelled peptide with plasma lipoproteins (CLiP profile, radioactivity of fractions); type: binding, LDL-R null mouse
Procedure: Peptide [^125I]Ac-(R)18L-NH2 was mixed with plasma from an LDL-R null mouse at a proportion of 100 μg peptide:1 mL plasma. The plasma lipoprotein profile was determined using the CLiP method (Garber and Anantharamaiah, J. Lipid. Res., 2000), and fractions were collected for measurement of radioactivity. Thus, peptide:lipid complexes are good candidates for administration that would result in enhanced uptake of atherogenic lipoproteins. The effect of the single domain peptide of the invention should last longer than any dual domain peptide since lipid-associated peptide is helical and the backbone is not accessible for proteolytic cleavage (degradation). Thus, several slow-release formulations of peptides with lipids are tested to determine the optimal formulation for delivery.

[6] = test system: plasma cholesterol; experiment: Plasma cholesterol after intravenous injection into fasted apo E null mice; type: in vivo
Procedure: The peptides were dissolved in PBS pH=5.0. Control mice (n=5) received PBS pH=5.0. Data shown represent mean±SEM.
Effects on cholesterol levels of peptide Ac-(R)14L-NH2 analog 2 (at 100 μg/mouse), administered intravenously into fasted apo E null mice as free peptide or as peptide:DMPC complexes at two pH levels. n=5 in all cases is shown in FIG. 11. Peptides were dissolved in PBS at the pH shown. Data shown represent mean±SEM.
Blood samples were taken immediately before injection and at 2 minutes and at 5 hours after injection and measured for cholesterol. A control of only PBS was also measured. Total cholesterol in the blood samples was measured, and is expressed in FIG. 4 as mean±SEM. […] However, the reduction in plasma cholesterol was in the lipoproteins, including HDL. […] Feces were collected for 24 hours following injection of 100 μg of Ac-(R)18L-NH2:DMPC complexes (n=2) or PBS (n=5). Fecal sterols were extracted, and total cholesterol was determined manually (Sigma Infinity). […] Total feces were collected from individually-caged mice for 24 hours following intravenous injection of Ac-(R)18L-NH2 into apo E null mice at a dose of 100 μg/mouse. Total 24-hour fecal cholesterol was then calculated. Feces from each mouse were weighed, lyophilized, and then re-weighed. 100 mg dried feces was then homogenized, and total lipids were extracted. The dried extract was resuspended in isopropanol, and cholesterol was measured manually. Data shown in FIG. 6 are mean±SEM for control and mean±range for peptide.
This experiment is carried out to show the usefulness of the peptides of the invention in vivo for lowering serum cholesterol. Peptide or peptide-lipid complexes were administered intravenously to mice. After some time period (as specifically shown in various figures), plasma samples were obtained by performing a retro-orbital bleed of the animals. The samples were analyzed by the column lipoprotein profile as previously described (Garber, D. et al. J. Lipid Res. 2000, 41:1020-1026). Briefly, 5 to 10 μl of the plasma was analyzed using a single superose (Pharmacia, Piscataway, N.J.) column. Immediately following the column run, cholesterol reagent is introduced through a mixing tee, and the eluent:reagent mixture enters a post column reaction coil. Cholesterol content of the reaction mixture is determined at 500 nm spectrophotometrically and the data points are collected into a computer. The resulting profiles are decomposed into component peaks and analyzed for relative area using PeakFit® computer software (SPSS Science, Chicago, Ill.). Absolute cholesterol value for total cholesterol is determined by comparisons with control samples of known values. The results would show a decrease in serum cholesterol in the subjects that received the polypeptides of the invention.

[7] = test system: erythrocytes; experiment: Hemolysis of erythrocytes (hemoglobin content of supernatant, absorbance at 540 nm); type: cell-based
Procedure: This example was performed to test the affect of amino acid residue changes on the lytic nature of peptides of the invention. Lysine residues, which resided on the polar face of the single domain peptide, were substituted with arginine and such altered peptides were tested for lytic ability. Similarly, in other peptides of the invention, lysine residues on the polar face of the single domain peptide of the invention were dimethylated. These altered peptides neutralized the hemolytic property of the 18 L peptide. A suspension of erythrocytes (10^6 cells/ml) in phosphate-buffered saline with and without peptide (10 ml of […] peptide solution) was incubated for 10 min at 37° C. Hemolysis was expressed as hemoglobin content (absorbance at 540 nm) of the supernatant after centrifugation at 16,000×g for 3 min. Hemoglobin content as measured in the presence of 0.1% Triton X-100 was taken as 100% hemolysis.

For `CC[C@H](C)[C@H](NC(=O)[C@H](Cc1ccccc1)NC(=O)[C@H](CCCNC(=N)N)NC(=O)[C@H](Cc1c[nH]c2ccccc12)NC(=O)[C@@H](NC(=O)[C@H](CO)NC(=O)CNC(=O)[C@H](Cc1ccc(O)cc1)NC(=O)[C@H](Cc1ccccc1)NC(=O)[C@H](CCCNC(=N)N)NC(=O)[C@H](CCCNC(=N)N)NC(C)=O)[C@@H](C)CC)C(=O)N[C@@H](CCCNC(=N)N)C(=O)N[C@@H](C)C(=O)N[C@@H](Cc1ccccc1)C(N)=O` [Ac-(R)14L-NH2 analog 2] (Ac-RRFYGSIWRFIRAF-NH2), the solubility ([1]; pH=5.0) was “freely soluble”, the solubility ([1]; pH=7.4) was “only partially soluble” and the “effect of DMPC on the suspension” value ([1]; pH=7.4, addition of DMPC at a 1:1 ratio (w/w)) was “completely clarified this suspension”.
With Ac-GIRRFLGSIWRFIRAFYG-NH2 [R-18L] the reducing plasma cholesterol [2] was “effective in reducing plasma cholesterol”, the “toxicity to mice, in words” value [3] was “completely normal” and the “uptake of LDL by HepG2 cells” value ([4]; 125I-LDL, 2 hours incubation) was “effective in enhancing the uptake”. For the same compound, the “uptake of VLDL by HepG2 cells” value ([4]; 125I-VLDL, 2 hours incubation) was “effective in enhancing the uptake”, the “enhanced uptake of VLDL in cells treated with heparinase/heparitinase (H/H)” value ([4]; HepG2 cells, H/H treated) was “completely abrogated” and the “uptake of LDL in cells treated with heparinase/heparitinase (H/H)” value ([4]; HepG2 cells, H/H treated) was “significant enhancement of uptake”. The “counts per minute in VLDL peak” value ([5]; FIG. 7, elution volume c. 12 mL) was about 50 CPM, the “counts per minute in LDL peak” value ([5]; FIG. 7, elution volume c. 16 mL) was about 150 CPM and the “counts per minute in HDL peak” value ([5]; FIG. 7, elution volume c. 18 mL) was about 350 CPM. For the same compound, the “cholesterol reduction, dose dependency” value ([6]; 50 μg of peptide per mouse, i.v., 5 hours, limited to VLDL and IDL/LDL fractions (FIG. 5)) was “substantial reduction”, the reducing plasma cholesterol ([6]; 50 μg/mouse, i.v., PBS pH=5.0, fasting apo E null mice (FIG. 10)) was “effective in reducing plasma cholesterol” and the “duration of plasma cholesterol reduction” value ([6]; 100 μg/mouse i.v. (FIG. 4)) was “maintained for at least five hours”. For the same compound, the “reduction of plasma cholesterol” value ([6]; 100 μg/mouse i.v., within two minutes, versus basal level (FIG. 4)) was “approximately 90%” and the “lowering plasma cholesterol in apo E(−) mice compared with dual domain peptide” value ([6]; apo E(−) mice) was “more effectively than the dual domain peptide”.
For “GIKKFLGSIWKFIKAFVG [18L, reference compound]”, the mice that died [3] was “four out of six”, the “toxicity to mice, in words” value [3] was “highly toxic” and the “hemolysis (lytic)” value [7] was 80%. For the same compound, the “hemolysis / cell lysis, in words” value [7] was “caused marked hemolysis”.
With “GIRRFYGSIWRFIR (Ac-GIRRFYGSIWRFIR-NH2) [Ac-(R)14L-NH2 analog 1]” the reducing plasma cholesterol ([6]; free peptide, 100 μg/mouse, i.v., PBS pH=5, fasting apo E null mice (FIG. 10)) was “not effective”.
